In PMC5509550, “Development of a Novel Lead that Targets M. tuberculosis Polyketide Synthase 13” (Cell, 2017):
In brackets after ≈: the same amount, converted by molar mass.

Assays:
Mtb mc^27000 = format: cell-based, Mycobacterium tuberculosis
[1] = tested on: TAM16-resistant Mtb mutants (Pks13 D1644G or D1644Y); format: cell-based, Mycobacterium tuberculosis

For NNC(=O)c1ccncc1 [INH, Isoniazid], the “frequency of resistance observed for INH” value (Mtb mc^27000) was 1 × 10^−6 and the “MIC against TAM16-resistant mutants” value [1] was 0.2 µM (≈ 0.0274 µg/mL).
For CO[C@H]1/C=C/O[C@@]2(C)Oc3c(C)c(O)c4c(O)c(c(/C=N/N5CCN(C)CC5)c(O)c4c3C2=O)NC(=O)/C(C)=C\C=C\[C@H](C)[C@H](O)[C@@H](C)[C@@H](O)[C@@H](C)[C@H](OC(C)=O)[C@@H]1C [RIF, Rifampicin], the “MIC against TAM16-resistant mutants” value [1] was 0.04 µM (≈ 0.0329 µg/mL).
